# Test results published in patent publication US11274332B2, “Methods of administering 3,4-diaminopyridine” (SERB SA, priority 2011, dated 2022).
# Where two headings read alike, the source gives them in different places.
# Assay: Example 18 Part 1: single ascending dose PK (5-30 mg) in slow and fast acetylators
# Assay type: in vivo, human
# Settings: for half-life / Cmax: both sexes, human, plasma; for half-life: oral, 5-30 mg, read-out: Mean terminal elimination half-lives; for Cmax: po, single oral doses 5 to 30 mg, read-out: mean Cmax, range over doses
# Protocol: The following method was used to analyze concentrations of 3,4-diaminopyridine and N-(4-aminopyridin-3-yl)acetamide in plasma and urine samples for the experiments in Example 18. In the LC/MS/MS method, the human plasma and urine samples were extracted using acetonitrile containing 0.1% formic acid. Samples were analyzed by using HPLC with positive ion electrospray MS/MS detection. The column was an Atlantis HILIC Silica column (3 μm, 3×50 mm) at a temperature of 40° C. Mobile phase A was water containing ammonium formate (20 mM) and 0.1% formic acid. Mobile phase B was acetonitrile/isopropanol (90/10; v/v) containing 0.1% formic acid. The flow rate was 0.90 mL/minute. The gradient conditions for human plasma and urine samples were as follows:
# The LC/MS/MS method was validated to quantify 3,4-DAP in human plasma in the linear calibration range of 0.500 to 500 ng/mL and from 1.00 to 1000 ng/mL for the 3-N-acetyl metabolite.
# The primary objective of the study was to assess the safety and tolerability of 3,4-DAP phosphate after single and multiple doses. The secondary objectives of the study were • Part 1 only: To determine the dose-related PK profile of amifampridine and of 3-N-acetyl amifampridine after single, escalating doses of 3,4-DAP phosphate • Part 2 only: To assess the steady-state plasma PK and accumulation of amifampridine and of 3-N-acetyl amifampridine over multiple days of dosing with 3,4-DAP phosphate An exploratory objective was to examine the overall activity of the N-acetyl transferase enzymes on the metabolism of amifampridine by assessing the PK of amifampridine and 3-N-acetyl amifampridine with phenotypic acetylation activity and genotyping determination of NAT2 gene polymorphisms. Study Design and Plan
# This open-label study in healthy subjects (male and female) was conducted in 2 parts. A total of 26 healthy male and female subjects, 12 in Part 1 (at least 5 of each sex), 4 in Part 2 Group 1, and 10 in Part 2 Group 2 (at least 4 of each sex) were enrolled into the study. The same subjects were not enrolled to participate in both parts. Subjects in Part 2 were dosed only after all subjects of Part 1 completed dosing and at least 24-hours of follow-up safety evaluation after the last dose were completed.
# All subjects were characterized for their metabolic acetylation phenotype and NAT2 genotype in order to divide subjects into two groups of acetylators. Volunteers were genetically typed for highly variant alleles of the N-acetyl transferase 2 enzyme (NAT2) domain on chromosome 8 (according to Example 16) and were phenotyped for acetylation rates with a caffeine challenge test (according to Example 15a). Approximately equal numbers of slow and fast acetylators (as defined by a caffeine challenge test in Example 15a) were enrolled in each group. In Part 2, very slow acetylators with NAT2 activity (ratio 1, Example 15a) below 0.06 were excluded from participation in the study. In each part of the study, subjects were assessed for PK, safety, and tolerability and all doses were administered within 30 min of ingestion of a meal or a snack.
# Part 1 was a dose-proportionality study in 12 healthy subjects each receiving 4 ascending single oral doses of 3,4-DAP phosphate in a sequential manner (5 mg, 10 mg, 20 mg, and 30 mg). For all 12 subjects, the first 3 doses of oral 3,4-DAP phosphate (5-20 mg) were administered on 3 consecutive days (Days 1-3). Two fast and two slow acetylators (as defined by a caffeine challenge test in Example 15a) were selected as the first 4 enrolled subjects (sentinel subjects). For the 2 fast acetylators the 30 mg dose was administered on Day 4. […] Safety and tolerability data collected for all 4 subjects were reviewed and the safety and tolerability results of the 30 mg dose for these 4 sentinel subjects were acceptable. The 30 mg dose was given to the remaining 8 non-sentinel subjects on Day 7. […]
compound,measurement,setting,value
"Nc1ccncc1N [3,4-DAP, 3,4-diaminopyridine]",Mean AUC0-t Slow/fast Ratio,5 mg single dose,10.4
same,Mean CL/F Slow/fast Ratio,5 mg single dose,0.114
same,Mean Cmax Slow/fast Ratio,5 mg single dose,4.50
same,Mean t1/2 Slow/fast Ratio,5 mg single dose,3.68
same,Mean AUC0-t Slow/fast Ratio,10 mg single dose,6.94
same,Mean CL/F Slow/fast Ratio,10 mg single dose,0.163
same,Mean Cmax Slow/fast Ratio,10 mg single dose,3.47
same,Mean t1/2 Slow/fast Ratio,10 mg single dose,2.15
same,Mean AUC0-t Slow/fast Ratio,20 mg single dose,5.75
same,Mean CL/F Slow/fast Ratio,20 mg single dose,0.186
same,Mean Cmax Slow/fast Ratio,20 mg single dose,3.50
same,Mean t1/2 Slow/fast Ratio,20 mg single dose,2.38
same,Mean AUC0-t Slow/fast Ratio,30 mg single dose,5.29
same,Mean CL/F Slow/fast Ratio,30 mg single dose,0.196
same,Mean Cmax Slow/fast Ratio,30 mg single dose,3.51
same,Mean t1/2 Slow/fast Ratio,30 mg single dose,1.88
same,half-life,fast acetylators,0.603 to 1.65 h
same,half-life,slow acetylators,2.22 to 3.11 h
same,Cmax,fast acetylator phenotype,3.98 to 25.5 ng/mL
same,Cmax,slow acetylator phenotype,17.9 to 89.6 ng/mL
same,AUC increase over 6-fold dose range (5 to 30 mg),fast acetylators,15.1 fold
same,Cmax increase over 6-fold dose range (5 to 30 mg),fast acetylators,6.41 fold
same,AUC increase over 6-fold dose range (5 to 30 mg),slow acetylators,7.64 fold
same,Cmax increase over 6-fold dose range (5 to 30 mg),slow acetylators,5.01 fold
